Earlier results in US11179370B2, “Cannabinoid receptor antagonists/inverse agonists useful for treating disease conditions, including metabolic disorders and cancers” (Jenrin Discovery, LLC, priority 2012, dated 2021).

Conditions: type 2 diabetes patients without other anti-diabetic medication, after six months of treatment, baseline value 7.9

## Cc1c(C(=O)NN2CCCCC2)nn(-c2ccc(Cl)cc2Cl)c1-c1ccc(Cl)cc1 [rimonabant]
  HbA1c levels lowered: 0.8%
